Laboratory results taken from PubChem BioAssay (NCI).
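Cultured in 96-well plates, cells were exposed to test compound for 48 hours across five concentrations. GI50: concentration for 50% inhibition of growth. TGI: concentration producing complete growth inhibition.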

Legend:
Assay in all cases: growth of human tumour cells (NCI), 48 h
[1] = system: LOX IMVI melanoma
[2] = system: ACHN renal
[3] = system: SF-539 CNS
[4] = system: OVCAR-8 ovarian
[5] = system: MDA-MB-231 breast
[6] = system: KM12 colon
[7] = system: SK-OV-3 ovarian
[8] = system: U251 CNS

| Compound | GI50 [1] [µM] | TGI [1] [µM] | GI50 [2] [µM] | TGI [2] [µM] | GI50 [3] [µM] | TGI [3] [µM] | GI50 [4] [µM] | TGI [4] [µM] | GI50 [5] [µM] | TGI [5] [µM] | GI50 [6] [µM] | TGI [6] [µM] | GI50 [7] [µM] | TGI [7] [µM] | GI50 [8] [µM] | TGI [8] [µM] |
| --- | --- | --- | --- | --- | --- | --- | --- | --- | --- | --- | --- | --- | --- | --- | --- | --- |
| CCCn1cnc2c(SCc3ccccc3)nc(N)nc21 | 98.9 | > 100 | > 100 | > 100 | > 100 | > 100 | 71.8 | > 100 | > 100 | > 100 | > 100 | > 100 | > 100 | > 100 | 41.4 | > 100 |
| COc1ccc(/C=C(/C(=O)n2cnnn2)c2cc(OC)c(OC)c(OC)c2)cc1 | 3.82 | > 100 | 6.87 | > 100 | 3.2 | 19.9 | 3.66 | > 100 | 4.7 | > 100 | 1.96 | > 100 | 5.26 | > 100 | 4.22 | > 100 |
| O=C(Nc1cc(S(=O)(=O)c2ccc(Cl)cc2)ccc1Cl)c1cc(I)cc(I)c1O | 18.2 | 38.7 | 17.1 | 36 | 18.6 | 38.2 | 18.6 | 41.7 | 17.4 | 36.5 | 14.2 | 27.4 | 17.2 | 31.5 | 15.3 | 30.8 |
| CC1(C)C2CCC13C(=O)C1OC3(C2)C2C(=O)c3c(O)cccc3C(=O)C12 (centres undefined) |  |  | 1.56 | 2.98 | 2.64 | 8.05 | 0.821 | 2.68 | 0.472 | 1.33 | 2.6 | 14.9 | 10.9 | 23.9 | 0.64 | 1.81 |
| O=c1[nH]c2cc(Cl)c(Cl)cc2n2cc3ccccc3c12 | 17.3 | 31 | 15.5 | 28.9 | 19.1 | 39.5 | 18.4 | 32.4 | 17.2 | 32.7 | 17.3 | 31.1 | 18 | 33.1 | 16.4 | 30 |
| Cc1n(Cc2ccc3ccccc3c2)c(Cl)c(Cl)[n+]1Cc1ccc2ccccc2c1 | 1.6 | 2.95 | 2.59 | 8.07 | 1.62 | 3.08 |  |  | 1.59 | 3.09 | 1.71 | 3.24 | 2.52 | 9.62 | 1.79 | 3.6 |
| O=C(O)Cn1ccnc1[N+](=O)[O-] |  |  |  | > 100 |  | > 100 |  | > 100 |  | > 100 |  | > 100 |  | > 100 |  | > 100 |
| COc1cc(O)c(C(C)=O)c(O)c1 |  | > 100 |  | > 100 |  | > 100 |  | > 100 |  |  |  | > 100 |  | > 100 |  | > 100 |
| O=C(Nc1ccccc1O)c1ccc(CNC(=O)c2ccsc2Nc2ccnc(C(F)(F)F)c2)cc1 | 1.63 | 3.99 | 2.6 | 10.3 | 1.95 | 18.1 | 1.57 | 19.1 | 2.85 | 13.2 | 2.84 | 11.9 | 5.59 | 45.6 | 1.65 | 5.07 |
| Cn1cnc([N+](=O)[O-])c1Sc1nc(N)nc2nc[nH]c12 | 0.488 | > 100 | 10 | > 100 | 3.15 | > 100 | 3.68 | > 100 | 4.88 | > 100 | 3.94 | > 100 | 0.727 | > 100 | 23 | > 100 |
| COc1ccc(C2ONC3=NCCN32)cc1 (centres undefined) | 14.4 | 47.1 | 37.1 | > 100 | 84.8 | > 100 | 67.7 | > 100 | > 100 | > 100 | 54.7 | > 100 | 40.7 | > 100 | 45 | > 100 |
| O=C(/C=C/c1cn(-c2ccccc2)nc1-c1ccc([N+](=O)[O-])cc1)c1ccc(Cl)cc1 |  |  | 3.64 | > 43.6 | 2.19 |  | 6.33 | > 100 | 2.9 | > 100 |  |  | 7.83 | > 77.3 |  |  |
| CCN(CC)CCOc1ccc(/C=C2\CC3C4CC=C5C[C@@H](OC(C)=O)CC[C@]5(C)C4CC[C@]3(C)C2=O)cc1OC (some centres undefined) |  |  | 9.84 | 21.5 |  |  | 20 | 49 | 21.1 | > 100 | 1.99 | 4.18 | 29.5 | 95.1 | 11.4 | 25.8 |
| Cn1cc(CO)c2ccccc21 |  |  | > 100 | > 100 | 40.6 | > 100 | > 100 | > 100 | 52 | > 100 | 15.9 | 88.5 | 77.5 | > 100 | 40.3 | > 100 |
| C1=C2CNCC3=Cc4ccc5ccccc5c4OC23Oc2c1ccc1ccccc21 | 2.43 | 7.48 |  |  | 3.36 | 14.9 | 2.99 | 14.9 | 9.34 | 27.2 | 3.83 | 16.3 | 3.41 | 12.8 | 3.26 | 14.8 |
| O=C(Nc1ccc(Cl)cc1)Nc1ccccc1CNc1nc(Nc2ccc(OCCN3CCCC3)cc2)ncc1Cl | 0.901 | 1.64 | 0.929 | 1.78 | 0.863 | 1.61 | 1.25 | 3.31 | 0.888 | 1.84 | 1.04 | 2.2 |  |  |  |  |
| CC12OC(C(=O)C13CCC3)C1C(=O)c3ccccc3C(=O)C12 (centres undefined) |  |  | > 100 | > 100 | > 100 | > 100 | 61.8 | > 100 | 10.4 | > 100 | 32.4 | > 100 | > 100 | > 100 | 55 | > 100 |
